Patent US20160298165A1 (priority 2013, published 2016)

Legend:
[1] = test system: M. tuberculosis parental, sdh1 and sdh2 mutant strains
[2] = test system: M. tuberculosis Δsdh1 mutant; assay type: cell-based; settings: aerobic, at two and five days
[3] = test system: M. tuberculosis Δsdh1 or Δsdh2 mutants; assay type: cell-based; settings: hypoxic conditions
[4] = test system: INH-resistant M. tuberculosis strains (H37Rv inhA S94A, H37Rv PmabAinhA c-15t, H37Rv katG g371del); assay type: cell-based, Mycobacterium tuberculosis
[5] = test system: M. tuberculosis H37Rv rpoB H445R; assay type: cell-based, Mycobacterium tuberculosis
M. tuberculosis H37Rv = assay type: cell-based, Mycobacterium tuberculosis

`N#CC(C#N)=NNc1cccc(Cl)c1` [CCCP, carbonyl cyanide 3-chlorophenylhydrazone] was tested, and the “time after which culture was unable to be rescued” value [1] was 22 to 24 days, the “viable cells at end of experiment” value [1] was “no viable cells remained” and the “parental inoculum remaining viable” value ([1]; Mycobacterium tuberculosis) was 0.1%.

For `CC[C@@H](CO)NCCN[C@@H](CC)CO` [EMB, Ethambutol, reference compound], the “clearing of the Δsdh1 mutant by single drugs vs parental” value [2] was “this was not true”.

In the case of `CCc1cc(C(N)=S)ccn1` [ETH], the “clearing of the Δsdh1 mutant by single drugs vs parental” value [2] is reported as “cleared more rapidly”.

With `NNC(=O)c1ccncc1` [INH, Isoniazid] the “killing of Δsdh1 or Δsdh2 mutants compared to the parental strain” value [3] was “no effect”, the “growth of INH-resistant strains” value [4] was “not impaired” and the “clearing of the Δsdh1 mutant by single drugs vs parental” value [2] was “this was not true”.

In the case of `CN[C@@H]1[C@H](O[C@H]2[C@H](O[C@H]3[C@H](O)[C@@H](O)[C@H](N=C(N)N)[C@@H](O)[C@@H]3N=C(N)N)O[C@@H](C)[C@]2(O)C=O)O[C@@H](CO)[C@H](O)[C@H]1O` [STR], the “clearing of the Δsdh1 mutant by single drugs vs parental” value [2] is reported as “this was not true”.

For `N[C@@H](CS)C(=O)O` [cysteine], the “growth of INH-resistant strains” value [4] was “not impaired”, the “growth of H37Rv rpoB H445R” value [5] was “grew well” and the “Frequency of mutation for INH, Average” value (M. tuberculosis H37Rv) was 7 × 10^−7. The “Frequency of mutation for RIF” value (M. tuberculosis H37Rv) was 2 × 10^−8, the “Frequency of mutation for RIF, Average” value (M. tuberculosis H37Rv) was 2 × 10^−8 and the “decrease in the frequency of spontaneous INH-resistant mutants” value (M. tuberculosis H37Rv) was at most 10 fold. For the same compound, the “decrease in the frequency of spontaneous RIF-resistant mutants” value (M. tuberculosis H37Rv) was 3 fold.
